Results on two compounds are retold here after ChEMBL document CHEMBL1158521, “Photoactive ligands probing the sweet taste receptor. Design and synthesis of highly potent diazirinyl D-phenylalanine derivatives” (Bioorg Med Chem Lett, 2010).

The target of experiment [1] is T1, T1R2/T1R3 (Homo sapiens) (UniProt Q8TE23+Q7RTX0). Briefly: Activity at human T1R2/T1R3 expressed in HEK293T cells co-expressing Galpha-16-gust44 assessed as F340/F380 ratio at 1.25 mM. It counts as cell-based. The following applies: HEK-293T.
Experiment [2] concerns the target T1, T1R2/T1R3 (Homo sapiens). The experiment in a line: Activity at human T1R2/T1R3 expressed in HEK293T cells co-expressing Galpha-16-gust44 assessed as F340/F380 ratio at 1.25 mM in presence of T1R2/T1R3 antagonist lactisole. Format: functional, cell-based. The following applies: HEK-293T.

Active and inactive are the calls of the source. The calls are words filed in the database; no cut-off is given here.

`N[C@H](Cc1ccc(C2(C(F)(F)F)N=N2)cc1)C(=O)O`: in experiment [1], the outcome was Active. Besides, the result in experiment [2] was inactive.
With `N[C@H](Cc1cccc(C2(C(F)(F)F)N=N2)c1)C(=O)O`, the outcome in experiment [1] was Active. The outcome in experiment [2] was inactive.
